Experimental data taken from US20020162794A1, “Anaerobic digestion” (priority 2001, published 2002).
Where “and” joins values, the source holds several entries; their conditions need not be identical. Identical values can stand only once.

Key:
[1] = test system: mixed culture from municipal sludge digester; test: Total Solids (TS) of batch anaerobic digester reactors
Procedure: A 30 ml samples is withdrawn from each of the 12 reactors into refractory pans after the weight of empty pans was recorded (say W1). […] The weight of pans with dried sample is then noted (say W2). The difference W2˜W1, gives the weight of solids in 30 ml sample. From this the total Solids concentration in units of g/liter is calculated. This TS parameter is indicative of concentration of total solids in the sample including organic substrate, inert organics and inorganics.
(§1) Municipal sludge from the city of Lubbock, Wastewater Treatment Plant was digested in 12 batch digesters. Using twelve batch reactors allowed the collection of control reactors data (i.e., no formate in the reactors) in triplicate, titration studies of increasing formate concentration, and duplicates/triplicates of varying formate concentration. Experiments were conducted in the laboratories of Texas Tech University.
(§2) The reactors were setup on Mar. […] The substrate taken was 2 parts of 50 g/liter sucrose solution mixed with 1 part of digested municipal sludge which acts as the seed material for incorporation of microbes into the reactors. The experiments were started with the following protocol. [drawing 1]

[2] = test system: mixed culture from municipal sludge digester; test: Total Volatile Solids (TVS) of batch anaerobic digester reactors
Procedure: After the above TS measurements were completed, the pans together with dried samples are put into furnace at 550° C. for about two hours. The weight of the pans are then noted (say W3). The difference […] then gives the weight of volatile solids in the 30 ml sample. Again this Total Volatile Solids concentration is manipulated to units of g/liter. TVS determination represents the concentration of the organic substrate in the test sample.
as §1, §2

[3] = test system: bacteria of the mixed anaerobic digester culture; test: Bacterial colony counts from formate bioreactors; type: cell-based
Procedure: Procedure for Bacterial Colony Counts from Formate Bioreactors
1. Collect samples from each bioreactor in sterile 30-mL glass vials with screw caps.
2. All subsequent operations are performed aseptically in the anaerobic chamber under an atmosphere of 3% H2/7% CO2/90% N2.
4. Seed 0.1-mL samples form the dilution blanks into tryptic soy agar plates.
5. Inoculate three plates for each dilution. Final dilutions on the plates are 10^−3 and 10^−4
6. Incubate all plates anaerobically for 3-4 days at room temperature (approximately 25° C.) prior to manually counting the numbers of colonies on each plate.
7. Calculate the numbers of colony-forming units (CFU) per ml in the original samples.

cattle = conditions: added to organic roughage fed to cattle; cited from earlier work

## O=C[O-].[Na+] [sodium formate]
[1]; 1000 ppm, day 2
  Total Solids: 37.6 g/L and 35.9 g/L
[1]; 1000 ppm, day 7
  Total Solids: 33.8 g/L and 32.5 g/L and 32.2 g/L
[1]; 1000 ppm, day 16
  Total Solids: 20.3 g/L and 15.8 g/L and 21.4 g/L
[1]; 1000 ppm, day 55
  Total Solids: 15.6 g/L and 13.2 g/L and 17.3 g/L
[1]; 1000 ppm, day 243 (so in the source)
  Total Solids: 16.6 g/L and 13.0 g/L and 17.8 g/L
[1]; 1000 ppm, formate addition at t = 0
  Total Solids: 42.3 g/L and 41.8 g/L and 40.8 g/L
[1]; 5000 ppm, day 2
  Total Solids: 35.5 g/L
[1]; 5000 ppm, day 7
  Total Solids: 34.6 g/L
[1]; 5000 ppm, day 16
  Total Solids: 20.7 g/L
[1]; 5000 ppm, day 55
  Total Solids: 23.2 g/L
[1]; 5000 ppm, day 243 (so in the source)
  Total Solids: 22.0 g/L
[1]; 5000 ppm, formate addition at t = 0
  Total Solids: 47.5 g/L
[1]; 10000 ppm, day 2
  Total Solids: 44.5 g/L and 52.6 g/L and 48.3 g/L
[1]; 10000 ppm, day 7
  Total Solids: 36.3 g/L and 45.3 g/L and 43.5 g/L
[1]; 10000 ppm, day 16
  Total Solids: 34.6 g/L and 41.2 g/L and 31.2 g/L
[1]; 10000 ppm, day 55
  Total Solids: 36.3 g/L and 36.8 g/L and 33.3 g/L
[1]; 10000 ppm, day 243 (so in the source)
  Total Solids: 33.4 g/L and 39.6 g/L and 30.7 g/L
[1]; 10000 ppm, formate addition at t = 0
  Total Solids: 55.1 g/L and 54.9 g/L and 53.4 g/L
[1]; 100000 ppm, day 2
  Total Solids: 254 g/L and 289.6 g/L
[1]; 100000 ppm, day 7
  Total Solids: 91.5 g/L and 147.4 g/L
[1]; 100000 ppm, day 16
  Total Solids: 129 g/L and 151.1 g/L
[1]; 100000 ppm, day 55
  Total Solids: 128 g/L and 160 g/L
[1]; 100000 ppm, day 243 (so in the source)
  Total Solids: 125 g/L and 147.8 g/L
[1]; 100000 ppm, formate addition at t = 0
  Total Solids: 180.4 g/L and 188 g/L
[2]; 1000 ppm, day 2
  Total Volatile Solids: 33.4 g/L and 32.6 g/L and 26.7 g/L
[2]; 1000 ppm, day 7
  Total Volatile Solids: 30.6 g/L and 29.9 g/L and 29.3 g/L
[2]; 1000 ppm, day 16
  Total Volatile Solids: 16.4 g/L and 13.1 g/L and 18.1 g/L
[2]; 1000 ppm, day 24
  Total Volatile Solids: 14.4 g/L and 10.3 g/L and 15.2 g/L
[2]; 1000 ppm, day 55
  Total Volatile Solids: 12.9 g/L and 10.7 g/L and 14.2 g/L
[2]; 1000 ppm, with formate addition at t = 0
  Total Volatile Solids: 39.6 g/L and 38.8 g/L and 37.3 g/L
[2]; 5000 ppm, day 2
  Total Volatile Solids: 23.7 g/L
[2]; 5000 ppm, day 7
  Total Volatile Solids: 20.3 g/L
[2]; 5000 ppm, day 16
  Total Volatile Solids: 12.6 g/L
[2]; 5000 ppm, day 24
  Total Volatile Solids: 11.7 g/L
[2]; 5000 ppm, day 55
  Total Volatile Solids: 14.7 g/L
[2]; 5000 ppm, with formate addition at t = 0
  Total Volatile Solids: 41.8 g/L
[2]; 10000 ppm, day 2
  Total Volatile Solids: 25.5 g/L and 30.2 g/L and 29.8 g/L
[2]; 10000 ppm, day 7
  Total Volatile Solids: 19.2 g/L and 24 g/L and 24.1 g/L
[2]; 10000 ppm, day 16
  Total Volatile Solids: 17.1 g/L and 21.0 g/L and 15.0 g/L
[2]; 10000 ppm, day 24
  Total Volatile Solids: 16.4 g/L and 18.9 g/L and 15.2 g/L
[2]; 10000 ppm, day 55
  Total Volatile Solids: 19.8 g/L and 20.1 g/L and 18.5 g/L
[2]; 10000 ppm, with formate addition at t = 0
  Total Volatile Solids: 38.8 g/L and 46.9 g/L and 46.4 g/L
[2]; 100000 ppm, day 2
  Total Volatile Solids: 68.5 g/L and 80.8 g/L
[2]; 100000 ppm, day 7
  Total Volatile Solids: 45.8 g/L and 52.7 g/L
[2]; 100000 ppm, day 16
  Total Volatile Solids: 44.7 g/L and 54.10 g/L
[2]; 100000 ppm, day 24
  Total Volatile Solids: 41.4 g/L and 51.6 g/L
[2]; 100000 ppm, day 55
  Total Volatile Solids: 45.5 g/L and 65.8 g/L
[2]; 100000 ppm, with formate addition at t = 0
  Total Volatile Solids: 126.6 g/L and 134.9 g/L
[3]; 100 ppm to 100,000 ppm, lower counts at higher concentrations
  bacterial counts: > 10^5 CFU per milliliter
[3]; 5000 ppm, reactor 3
  Colony forming units per mL: 0.59 × 10^7 per mL
[3]; 10000 ppm, single reactors (2, 4, 5)
  Colony forming units per mL: 0.26 × 10^7 per mL and 0.19 × 10^7 per mL and 0.38 × 10^7 per mL
cattle
  increase of digestibility of the feed: 4-27%
